In patent US9776972B2, “Pyrazole derivatives as arginine methyltransferase inhibitors and uses thereof” (priority 2013, dated 2017):

Target: human PRMT8 (Homo sapiens, UniProt Q9NR22)
Experiment: PRMT8 Biochemical Assay (3H-SAM Flashplate, peptide substrate)
Conditions: single experiment or average of multiple experiments
Outline: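 Methylation of a biotin-tagged histone H4 peptide (residues 31-45) by recombinant PRMT8 was measured as 3H transfer from 3H-SAM, after a 30 min room-temperature compound preincubation in Bicine buffer pH 7.6. Reactions were quenched with unlabelled SAM to 400 uM final, then bound counts were read by streptavidin Flashplate. IC50 came from a Hill fit of % inhibition relative to max and SAH min controls.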

Sequence of human PRMT8 (Q9NR22 whole entry): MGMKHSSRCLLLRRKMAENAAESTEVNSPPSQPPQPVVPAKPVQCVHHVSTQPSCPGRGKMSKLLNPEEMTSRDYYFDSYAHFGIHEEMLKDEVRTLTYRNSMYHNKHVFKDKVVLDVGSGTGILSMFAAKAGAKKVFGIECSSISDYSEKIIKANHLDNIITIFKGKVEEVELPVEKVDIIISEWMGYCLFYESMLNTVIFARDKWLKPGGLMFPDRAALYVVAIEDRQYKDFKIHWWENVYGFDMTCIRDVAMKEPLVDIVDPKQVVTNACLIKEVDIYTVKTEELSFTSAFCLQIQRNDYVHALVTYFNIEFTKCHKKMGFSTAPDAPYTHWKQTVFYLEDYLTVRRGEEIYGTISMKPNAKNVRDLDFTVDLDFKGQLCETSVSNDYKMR

| SMILES | IC50 |
| --- | --- |
| CN(CCN)Cc1cn(C)nc1-c1ccc(F)cc1 [Compound 3] | 0.96 µM |
| CN(CCN)Cc1cnn(C)c1-c1ccc(F)cc1 [Compound 4] | 2.43 µM |
| COCCn1cc(CN(C)CCN)c(-c2ccc(F)cc2)n1 [Compound 5] | 4.2 µM |
| CCN(CCNC)Cc1c[nH]nc1-c1ccc(F)cc1 [Compound 9] | 0.396 µM |
| CNCCN(C)Cc1cnn(C)c1-c1ccc(F)cc1 [Compound 10] | 0.693 µM |
| CNCCN(C)Cc1c[nH]nc1-c1cccc(N)c1 [Compound 32] | 1.53 µM |
| CNCCN(C)Cc1c[nH]nc1-c1ccc(CC#N)cc1 [Compound 34] | 0.773 µM |
| CNCCN(C)Cc1c[nH]nc1-c1ccccc1O [Compound 35] | 24.8 µM |
| CNCCN(C)Cc1c[nH]nc1-c1cccc(OC(F)(F)F)c1 [Compound 39] | 0.596 µM |
| CNCCN(C)Cc1c[nH]nc1-c1ccccc1NS(C)(=O)=O [Compound 41] | 40 µM |
| CNCCN(C)Cc1c[nH]nc1-c1cccc(NC(C)=O)c1 [Compound 42] | 1.54 µM |
| CNCCN(C)Cc1c[nH]nc1-c1cccc(C(C)=O)c1 [Compound 44] | 0.522 µM |
| CNCCN(C)Cc1c[nH]nc1-c1ccc(-c2ccccc2)cc1 [Compound 47] | 0.0908 µM |
| CNCCN(C)Cc1c[nH]nc1-c1ccccc1F [Compound 48] | 2.17 µM |
| CN(CCN)Cc1n[nH]cc1-c1ccc(F)cc1 [Compound 69] | 2.04 µM |
| CN(CCN)Cc1c[nH]nc1-c1cccc(C#N)c1 [Compound 70] | 2.49 µM |
| CN(CCN)Cc1c[nH]nc1-c1cccc(F)c1 [Compound 71] | 0.347 µM |
| CN(CCN)Cc1c[nH]nc1-c1ccccc1F [Compound 72] | 3.73 µM |
| CN(CCN)Cc1c[nH]nc1-c1ccccc1 [Compound 73] | 0.959 µM |

| SMILES | IC50 |
| --- | --- |
| CN(CCN)Cc1c[nH]nc1-c1ccc(C(C)(C)C)cc1 [Compound 74] | 0.185 µM |
| CC(C)N(CCN)Cc1c[nH]nc1-c1ccc(F)cc1 [Compound 75] | 2.51 µM |
| CN(CCN)Cc1cn(C2COC2)nc1-c1ccc(F)cc1 [Compound 77] | 1.66 µM |
| NCCN(Cc1c[nH]nc1-c1ccc(F)cc1)C1CC1 [Compound 78] | 1.49 µM |
| CN(CCN)Cc1cnn(C2COC2)c1-c1ccc(F)cc1 [Compound 81] | 3.45 µM |
| CN(CCN)Cc1c[nH]nc1-c1ccc(N2CCNCC2)cc1 [Compound 82] | 2.47 µM |
| CN(CCN)Cc1nn(C)cc1-c1ccc(C#N)cc1 [Compound 83] | 0.71 µM |
| CN(CCN)Cc1c[nH]nc1-c1ccc(C(F)(F)F)cc1C(F)(F)F [Compound 85] | 4.26 µM |
| CN(CCN)Cc1c[nH]nc1-c1ccc(Cl)cc1Cl [Compound 86] | 0.74 µM |
| COc1ccc(-c2n[nH]cc2CN(C)CCN)c(OC)c1 [Compound 87] | 3.11 µM |
| Cc1ccc(-c2n[nH]cc2CN(C)CCN)c(C)c1 [Compound 88] | 1.89 µM |
| CN(CCN)Cc1c[nH]nc1-c1ccc(F)cc1Cl [Compound 89] | 1.73 µM |
| Cc1ccc(-c2n[nH]cc2CN(C)CCN)c(Cl)c1 [Compound 90] | 1.38 µM |
| Cc1ccc(Cl)c(-c2n[nH]cc2CN(C)CCN)c1 [Compound 91] | 6.9 µM |
| CN(CCN)Cc1c[nH]nc1-c1ccc(C(F)(F)F)cc1 [Compound 92] | 0.152 µM |
| CN(CCN)Cc1c[nH]nc1-c1ccc(OC(F)(F)F)cc1 [Compound 93] | 0.0761 µM |
| CN(CCN)Cc1c[nH]nc1-c1ccc(OC(F)F)cc1 [Compound 94] | 0.198 µM |
| CN(CCN)Cc1c[nH]nc1-c1ccc(Cl)cc1 [Compound 95] | 0.207 µM |
